# According to patent US20080269241A1, “BICYCLIC AMINOPROPYL TETRAHYDRO-PYRAZOLO-PYRIDINE MODULATORS OF CATHEPSIN S” (priority 2007, published 2008):
# Target: T1, human cathepsin S (CatS) (Homo sapiens, UniProt P25774)
# T1 construct: made in house; host or cells: baculovirus system (insect cells)
# Test: Recombinant human cathepsin S (CatS) fluorogenic substrate inhibition assay
# Assay type: biochemical
# Settings: recombinant human CatS, 10 μM Z-Valine-Valine-Arginine-AMC, pH 5.0; average of results obtained; read-out: CatS IC50
# Description: Recombinant human cathepsin S (CatS) was expressed in the baculovirus system and purified in one step with a thiopropyl-sepharose column. […] The assay is run in 150 mM sodium acetate pH 5.0 containing 1.5 mM DTT and 150 mM NaCl. […] Measurements are taken every min for 20 min. The rate is calculated from the slope of the increase in fluorescence and the percent inhibition is calculated from this.
# T1 sequence (P25774 115-331): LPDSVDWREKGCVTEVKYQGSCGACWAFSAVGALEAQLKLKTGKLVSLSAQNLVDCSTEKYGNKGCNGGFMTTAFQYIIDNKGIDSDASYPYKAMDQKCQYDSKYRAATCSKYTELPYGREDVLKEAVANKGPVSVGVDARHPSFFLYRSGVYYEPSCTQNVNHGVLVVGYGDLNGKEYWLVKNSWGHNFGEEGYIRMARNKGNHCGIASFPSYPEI
row,IC50,SMILES
1,150 nM,"CS(=O)(=O)N1CCc2c(c(-c3ccc(C(F)(F)F)c(CNC(=O)c4ccc(-c5ccccn5)s4)c3)nn2CC(O)CN2CCC(N3CCCC3=O)CC2)C1 (centres unmarked) [Example 121, 5-Pyridin-2-yl-thiophene-2-carboxylic acid 5-(1-{2-hydroxy-3-[4-(2-oxo-pyrrolidin-1-yl)-piperidin-1-yl]-propyl}-5-methanesulfonyl-4,5,6,7-tetrahydro-1H-pyrazolo[4,3-c]pyridin-3-yl)-2-trifluoromethyl-benzylamide]"
2,170 nM,"CN1CCOc2cc(C(=O)NCc3cc(-c4nn(CC(O)CN5CCC(N6CCCC6=O)CC5)c5c4CN(S(C)(=O)=O)CC5)ccc3C(F)(F)F)ccc21 (centres unmarked) [Example 122, 4-Methyl-3,4-dihydro-2H-benzo[1,4]oxazine-7-carboxylic acid 5-(1-{2-hydroxy-3-[4-(2-oxo-pyrrolidin-1-yl)-piperidin-1-yl]-propyl}-5-methanesulfonyl-4,5,6,7-tetrahydro-1H-pyrazolo[4,3-c]pyridin-3-yl)-2-trifluoromethyl-benzylamide]"
3,180 nM,"Cc1nn(C)c2sc(C(=O)NCc3cc(-c4nn(CC(O)CN5CCC(N6CCCC6=O)CC5)c5c4CN(S(C)(=O)=O)CC5)ccc3C(F)(F)F)cc12 (centres unmarked) [Example 123, 1,3-Dimethyl-1H-thieno[2,3-c]pyrazole-5-carboxylic acid 5-(1-{2-hydroxy-3-[4-(2-oxo-pyrrolidin-1-yl)-piperidin-1-yl]-propyl}-5-methanesulfonyl-4,5,6,7-tetrahydro-1H-pyrazolo[4,3-c]pyridin-3-yl)-2-trifluoromethyl-benzylamide]"
4,180 nM,"CS(=O)(=O)N1CCc2c(c(-c3ccc(C(F)(F)F)c(CNC(=O)c4ccc[nH]4)c3)nn2CC(O)CN2CCC(N3CCCC3=O)CC2)C1 (centres unmarked) [Example 124, 1H-Pyrrole-2-carboxylic acid 5-(1-{2-hydroxy-3-[4-(2-oxo-pyrrolidin-1-yl)-piperidin-1-yl]-propyl}-5-methanesulfonyl-4,5,6,7-tetrahydro-1H-pyrazolo[4,3-c]pyridin-3-yl)-2-trifluoromethyl-benzylamide]"
5,200 nM,"CSCC(=O)NCc1cc(-c2nn(CCCN3CCC(N4CCCC4=O)CC3)c3c2CN(S(C)(=O)=O)CC3)ccc1C(F)(F)F [Example 125, N-[5-(5-Methanesulfonyl-1-{3-[4-(2-oxo-pyrrolidin-1-yl)-piperidin-1-yl]-propyl}-4,5,6,7-tetrahydro-1H-pyrazolo[4,3-c]pyridin-3-yl)-2-trifluoromethyl-benzyl]-2-methylsulfanyl-acetamide]"
6,210 nM,"CS(=O)(=O)N1CCc2c(c(-c3ccc(C(F)(F)F)c(CNC(=O)c4cccnc4)c3)nn2CC(O)CN2CCC(N3CCCC3=O)CC2)C1 (centres unmarked) [Example 126, N-[5-(1-{2-Hydroxy-3-[4-(2-oxo-pyrrolidin-1-yl)-piperidin-1-yl]-propyl}-5-methanesulfonyl-4,5,6,7-tetrahydro-1H-pyrazolo[4,3-c]pyridin-3-yl)-2-trifluoromethyl-benzyl]-nicotinamide]"
7,220 nM,"CC(C)(C)OC(=O)N1CCC(C(=O)NCc2cc(-c3nn(CC(O)CN4CCC(N5CCCC5=O)CC4)c4c3CN(S(C)(=O)=O)CC4)ccc2C(F)(F)F)CC1 (centres unmarked) [Example 127, 4-[5-(1-{2-Hydroxy-3-[4-(2-oxo-pyrrolidin-1-yl)-piperidin-1-yl]-propyl}-5-methanesulfonyl-4,5,6,7-tetrahydro-1H-pyrazolo[4,3-c]pyridin-3-yl)-2-trifluoromethyl-benzylcarbamoyl]-piperidine-1-carboxylic acid tert-butyl ester]"
8,240 nM,"CS(=O)(=O)N1CCc2c(c(-c3ccc(C(F)(F)F)c(CNC(=O)c4ccncc4)c3)nn2CC(O)CN2CCC(N3CCCC3=O)CC2)C1 (centres unmarked) [Example 128, N-[5-(1-{2-Hydroxy-3-[4-(2-oxo-pyrrolidin-1-yl)-piperidin-1-yl]-propyl}-5-methanesulfonyl-4,5,6,7-tetrahydro-1H-pyrazolo[4,3-c]pyridin-3-yl)-2-trifluoromethyl-benzyl]-isonicotinamide]"
